Test results reported in patent publication EP0693071B1, “NEW CARBOXYLIC-ACID ESTERS OF 2-AMINO-7-(1,3-DIHYDROXY-2-PROPOXYMETHYL)PURINE, THE PREPARATION OF SUCH ESTERS AND THEIR USE” (HOECHST AKTIENGESELLSCHAFT, priority 1993, dated 1994).
Where two headings read alike, the source gives them in different places.

System: Herpes simplex 1 Virus (HSV-1)
Assay: Activity against systemic HSV-1 infection in NMRI mice, oral treatment
Type: in vivo, NMRI-Mäuse
Details: for ED50: read-out: IC50 (nach Reed und Muench); for mittlere Überlebenszeit (Tage): oral
From the text: Wirkung gegen systemische Herpes simplex 1 Virus (HSV-1) Infektion: NMRI-Mäuse, spezifisch pathogenfrei, im Gewicht von 15 bis 18 g wurden intraperitoneal mit HSV-1 infiziert und anschließend mit den erfindungsgemäßen Verbindungen oral therapiert. Die Behandlung erfolgte erstmals 3 Stunden nach der Infektion und wurde zweimal täglich über 4 Tage fortgesetzt. Der Behandlungserfolg wurde anhand des Krankheitsverlaufes und der Überlebensrate gegenüber der unbehandelten Infektionskontrolle bestimmt. Letztere erhielt anstelle der erfindungsgemäßen Verbindungen physiologische Kochsalzlösung appliziert. Die Beobachtungszeit betrug zwei Wochen. Tabelle 1 zeigt die Ergebnisse dieser Untersuchung.

[1] = Human alphaherpesvirus 1, 336 h, NMRI mouse, HSV-1 i.p. infection, oral treatment, 9 doses (first 3 h after infection, then twice daily over 4 days), 2 weeks observation

SMILES | ED50 [1] [µmol/kg] | also measured
CC(C)(C)C(=O)OCC(COC(=O)C(C)(C)C)OCn1cnc2nc(N)ncc21 [Beispiel 1, 2-Amino-7-[(1,3-bis-pivaloyloxy-2-propoxy)methyl]purin] | 19.7 | 
CCCCC(=O)OCC(COC(=O)CCCC)OCn1cnc2nc(N)ncc21 [Beispiel 2, 2-Amino-7-[(1,3-bis-valeroyloxy-2-propoxy)methyl]purin] | 12 | mittlere Überlebenszeit (Tage) (Dosierung 9 x 10 µmol/kg): 9 ± 1,7 Tage
CCCCC(=O)OCC(CO)OCn1cnc2nc(N)ncc21 (stereo not shown) [Beispiel 3, 2-Amino-7-[(1-hydroxy-3-valeroyloxy-2-propoxy)methyl]purin] | < 9.3 | mittlere Überlebenszeit (Tage) (Dosierung 9 x 9,3 µmol/kg): 10 Tage
COCC(=O)OCC(COC(=O)COC)OCn1cnc2nc(N)ncc21 [Beispiel 6, 2-Amino-7-[(1,3-bis-methoxyacetoxy-2-propoxy)methyl]purin] | < 10 | mittlere Überlebenszeit (Tage) (Dosierung 9 x 10 µmol/kg): 9 Tage
CCOCC(=O)OCC(COC(=O)COCC)OCn1cnc2nc(N)ncc21 [Beispiel 7, 2-Amino-7-[(1,3-bis-ethoxyacetoxy-2-propoxy)methyl]purin] | 13.2 | 
Nc1ncc2c(ncn2COC(COC(=O)C2CCCCC2)COC(=O)C2CCCCC2)n1 [Beispiel 9, 2-Amino-7-[(1,3-bis-cyclohexancarbonyloxy-2-propoxy)methyl]purin] | 5.6 | 
Nc1ncc2c(ncn2COC(CO)COC(=O)C2CCCCC2)n1 (stereo not shown) [Beispiel 10, 2-Amino-7-[(1-cyclohexancarbonyloxy-3-hydroxy-2-propoxy)methyl] purin] | 3.6 | 
Nc1ncc2c(ncn2COC(COC(=O)c2ccccc2)COC(=O)c2ccccc2)n1 [Beispiel 11, 2-Amino-7-[(1,3-bis-benzoyloxy-2-propoxy)methyl]purin] | 17.3 | 
Nc1ncc2c(ncn2COC(COC(=O)Cc2ccccc2)COC(=O)Cc2ccccc2)n1 [Beispiel 12, 2-Amino-7-[(1,3-bis-phenylacetoxy-2-propoxy)methyl]purin] |  | ED50 (Human alphaherpesvirus 1, po, 336 h): < 10 µmol/kg
Nc1ncc2c(ncn2COC(COC(=O)c2ccsc2)COC(=O)c2ccsc2)n1 [Beispiel 13] | 5.6 | 
Nc1ncc2c(ncn2COC(CO)COC(=O)c2ccsc2)n1 (stereo not shown) [Beispiel 14] | 11.5 | 
Nc1ncc2c(ncn2COC(COC(=O)Cc2cccnc2)COC(=O)Cc2cccnc2)n1 [Beispiel 15] | 10 | 
Nc1ncc2c(ncn2COC(CO)CO)n1 [Formel 1, R1=R2=H (=Verb. der Formel 1'), 2-Amino-7-[(1,3-dihydroxy-2-propoxy)methyl]purin, reference compound] | 34.5 | 
